Laboratory results: ChEMBL document CHEMBL1125556, “Fluoroquinolones: relationships between structural variations, mammalian cell cytotoxicity, and antimicrobial activity” (J Med Chem, 1992)
Converted amounts (≈) assume the structure as drawn.

Columns and labels:
[1] = tested on: V79; test: Mammalian cell cytotoxicity test in chinese hamster V79 cells (clonogenic cytotoxicity); assay type: functional, cell-based
[2] = Antibacterial activity against five Gram-negative bacteria; assay type: functional
[3] = Cricetulus griseus, V79, read-out: IC50

Question: Which IC50 [1, 3] does the source give for `CN1CCN(c2c(F)cc3c(=O)c(C(=O)O)cn(CCF)c3c2F)CC1` [FLEROXACIN] here?
Answer: The IC50 was > 500 µg/mL.

Question: What about the MIC ([2]; read-out: MIC) of the same compound?
Answer: The MIC was 0.35 µg/mL (≈ 0.948 µM).

Question: Which IC50 [1, 3] does the source give for `O=C(O)c1cn(C2CC2)c2c(Cl)c(N3CCNCC3)c(F)cc2c1=O` here?
Answer: The IC50 was 43 µg/mL (≈ 118 µM).

Question: And the MIC ([2]; read-out: MIC)?
Answer: The MIC was 0.07 µg/mL (≈ 0.191 µM).

Question: For `CCNCC1CCN(c2c(F)cc3c(=O)c(C(=O)O)cn(CCF)c3c2F)C1` (stereo not drawn), which IC50 [1, 3] is on record?
Answer: The IC50 was > 500 µg/mL.

Question: What about the MIC ([2]; read-out: MIC) of the same compound?
Answer: Its MIC is 0.4 µg/mL (≈ 1.01 µM).

Question: Which IC50 [1, 3] does the source give for `O=C(O)c1cn(C2CC2)c2nc(N3CCNCC3)c(F)cc2c1=O` here?
Answer: The IC50 was 120 µg/mL (≈ 361 µM).

Question: And the MIC ([2]; read-out: MIC)?
Answer: Its MIC is 0.09 µg/mL (≈ 0.271 µM).

Question: What does the source list for `CC1CN(c2nc3c(cc2F)c(=O)c(C(=O)O)cn3C2CC2)CC(C)N1` (stereo not drawn)?
Answer: IC50 [1, 3]: 250 µg/mL (≈ 694 µM); MIC ([2]; read-out: MIC): 0.17 µg/mL (≈ 0.472 µM)

Question: For `CCNCC1CCN(c2cc3c(cc2F)c(=O)c(C(=O)O)cn3C2CC2)C1` (stereo in doubt; 26a), which IC50 [1, 3] is on record?
Answer: The IC50 was 160 µg/mL (≈ 428 µM).

Question: What about the MIC ([2]; read-out: MIC) of the same compound?
Answer: The MIC was 0.46 µg/mL (≈ 1.23 µM).

Question: Which IC50 [1, 3] does the source give for `COc1c(N2CCC(N)C2)c(F)cc2c(=O)c(C(=O)O)cn(-c3ccc(F)cc3F)c12` (stereo not drawn) here?
Answer: The IC50 was 290 µg/mL (≈ 669 µM).

Question: And the MIC ([2]; read-out: MIC)?
Answer: Its MIC is 0.35 µg/mL (≈ 0.808 µM).

Question: Which IC50 ([1]; v79) does the source give for `CCNCC1CCN(c2c(F)cc3c(=O)c(C(=O)O)cn(C4CC4)c3c2OC)C1` (stereo in doubt; 68) here?
Answer: Its IC50 is 22 µg/mL (≈ 54.5 µM).

Question: What about the MIC [2] of the same compound?
Answer: The MIC was 0.26 µg/mL (≈ 0.644 µM).

Question: With `NC1CCN(c2c(F)cc3c(=O)c(C(=O)O)cn(C4CC4)c3c2F)C1` (stereo in doubt; 43) as the compound, how does the IC50 ([1]; v79) read?
Answer: Its IC50 is 30 µg/mL (≈ 85.9 µM).

Question: For `CCNCC1CCN(c2c(F)c(Cl)c3c(=O)c(C(=O)O)cn(C4CC4)c3c2Cl)C1` (stereo not drawn), which IC50 [1, 3] is on record?
Answer: Its IC50 is 270 µg/mL (≈ 610 µM).

Question: What about the MIC ([2]; read-out: MIC) of the same compound?
Answer: Its MIC is 0.6 µg/mL (≈ 1.36 µM).

Question: What does the source list for `O=C(O)c1cn(C2CC2)c2cc(N3CCNCC3)c(F)cc2c1=O` [CIPROFLOXACIN]?
Answer: IC50 [1, 3]: 380 µg/mL (≈ 1150 µM); IC50 ([1]; v79): 380 µg/mL (≈ 1150 µM); MIC [2]: 0.1 µg/mL (≈ 0.302 µM); MIC ([2]; read-out: MIC): 0.1 µg/mL (≈ 0.302 µM)

Question: Which IC50 [1, 3] does the source give for `CSc1c(N2CCC(N)C2)c(F)cc2c(=O)c(C(=O)O)cn(C3CC3)c12` (stereo not drawn) here?
Answer: Its IC50 is 31 µg/mL (≈ 82.1 µM).

Question: What about the MIC ([2]; read-out: MIC) of the same compound?
Answer: Its MIC is 0.2 µg/mL (≈ 0.53 µM).

Question: What does the source list for `CCNCC1CCN(c2cc3c(cc2F)c(=O)c(C(=O)O)cn3-c2ccc(F)cc2F)C1` (stereo in doubt; 36b)?
Answer: IC50 [1, 3]: 190 µg/mL (≈ 427 µM); MIC ([2]; read-out: MIC): 0.8 µg/mL (≈ 1.8 µM)

Question: Which results are given for `COc1c(N2CC(C)NC(C)C2)c(F)cc2c(=O)c(C(=O)O)cn(C3CC3)c12` (stereo not drawn)?
Answer: IC50 [1, 3]: > 500 µg/mL; MIC ([2]; read-out: MIC): 0.34 µg/mL (≈ 0.873 µM)

Question: What does the source list for `NC1CCN(c2c(F)cc3c(=O)c(C(=O)O)cn(C4CC4)c3c2Cl)CC1`?
Answer: IC50 [1, 3]: 18 µg/mL (≈ 47.4 µM); MIC ([2]; read-out: MIC): 0.08 µg/mL (≈ 0.211 µM)

Question: Which IC50 [1, 3] does the source give for `CC1(CN)CCN(c2cc3c(cc2F)c(=O)c(C(=O)O)cn3C2CC2)C1` (stereo not drawn) here?
Answer: Its IC50 is 23 µg/mL (≈ 64 µM).

Question: And the MIC ([2]; read-out: MIC)?
Answer: The MIC was 0.52 µg/mL (≈ 1.45 µM).

Question: For `NC1CCN(c2c(F)c(O)c3c(=O)c(C(=O)O)cn(C4CC4)c3c2F)C1` (stereo not drawn), which IC50 [1, 3] is on record?
Answer: Its IC50 is 43 µg/mL (≈ 118 µM).

Question: And the MIC ([2]; read-out: MIC)?
Answer: Its MIC is 0.03 µg/mL (≈ 0.0821 µM).

Question: For `COc1c(N2CCNCC2)c(F)cc2c(=O)c(C(=O)O)cn(C3CC3)c12`, which IC50 [1, 3] is on record?
Answer: Its IC50 is 82 µg/mL (≈ 227 µM).

Question: And the MIC ([2]; read-out: MIC)?
Answer: Its MIC is 0.07 µg/mL (≈ 0.194 µM).

Question: Which IC50 [1, 3] does the source give for `CCNCC1CCN(c2c(F)cc3c(=O)c(C(=O)O)cn(C4CC4)c3c2Cl)C1` (stereo in doubt; 37a) here?
Answer: Its IC50 is < 11 µg/mL.

Question: For `Cc1c(F)c(N2CCC(N)C2)cc2c1c(=O)c(C(=O)O)cn2C1CC1` (stereo not drawn), which IC50 [1, 3] is on record?
Answer: Its IC50 is 14 µg/mL (≈ 40.5 µM).

Question: And the MIC ([2]; read-out: MIC)?
Answer: The MIC was 0.09 µg/mL (≈ 0.261 µM).

Question: Which IC50 ([1]; v79) does the source give for `COc1c(N2CCC(N)C2)c(F)cc2c(=O)c(C(=O)O)cn(C3CC3)c12` (stereo in doubt; 24d) here?
Answer: Its IC50 is 45 µg/mL (≈ 125 µM).

Question: And the MIC ([2]; read-out: MIC)?
Answer: The MIC was 0.07 µg/mL (≈ 0.194 µM).

Question: Which IC50 [1, 3] does the source give for `CCNCC1CCN(c2c(F)cc3c(=O)c(C(=O)O)cn(C4CC4)c3c2F)C1` (stereo in doubt; 12) [PD-117558] here?
Answer: Its IC50 is 11 µg/mL (≈ 28.1 µM).

Question: What about the MIC ([2]; read-out: MIC) of the same compound?
Answer: Its MIC is 0.05 µg/mL (≈ 0.128 µM).

Question: For `NCC1CCN(c2c(F)cc3c(=O)c(C(=O)O)cn(C4CC4)c3c2Cl)C1` (stereo not drawn), which IC50 [1, 3] is on record?
Answer: The IC50 was 8 µg/mL (≈ 21.1 µM).

Question: And the MIC ([2]; read-out: MIC)?
Answer: The MIC was 0.06 µg/mL (≈ 0.158 µM).

Question: With `CC1CN(c2c(F)cc3c(=O)c(C(=O)O)cn(-c4ccc(F)cc4F)c3c2Cl)CCN1` (stereo not drawn) as the compound, how does the IC50 [1, 3] read?
Answer: The IC50 was > 500 µg/mL.

Question: What about the MIC ([2]; read-out: MIC) of the same compound?
Answer: The MIC was 2.07 µg/mL (≈ 4.58 µM).

Question: With `NC1CCN(c2cc3c(cc2F)c(=O)c(C(=O)O)cn3C2CC2)C1` (stereo in doubt; 44) as the compound, how does the IC50 ([1]; v79) read?
Answer: The IC50 was 72 µg/mL (≈ 217 µM).

Question: And the MIC [2]?
Answer: The MIC was 0.09 µg/mL (≈ 0.272 µM).

Question: What does the source list for `O=C(O)c1cn(-c2ccc(F)cc2F)c2cc(N3CCNCC3)c(F)cc2c1=O`?
Answer: IC50 [1, 3]: > 500 µg/mL; MIC ([2]; read-out: MIC): 0.11 µg/mL (≈ 0.273 µM)

Question: With `CCNCC1CCN(c2cc3c(c(C)c2F)c(=O)c(C(=O)O)cn3C2CC2)C1` (stereo not drawn) as the compound, how does the IC50 [1, 3] read?
Answer: The IC50 was 42 µg/mL (≈ 108 µM).

Question: What about the MIC ([2]; read-out: MIC) of the same compound?
Answer: Its MIC is 0.6 µg/mL (≈ 1.55 µM).

Question: Which results are given for `COc1c(N2CCC(N)C2)c(F)cc2c(=O)c(C(=O)O)cn(C3CC3)c12` (stereo in doubt; 47)?
Answer: IC50 ([1]; v79): 44 µg/mL (≈ 122 µM); MIC [2]: 0.07 µg/mL (≈ 0.194 µM)

Question: With `CC1COc2c(N3CCN(C)CC3)c(F)cc3c(=O)c(C(=O)O)cn1c23` (stereo not drawn) [OFLOXACIN] as the compound, how does the IC50 [1, 3] read?
Answer: The IC50 was > 500 µg/mL.

Question: And the MIC ([2]; read-out: MIC)?
Answer: Its MIC is 0.2 µg/mL (≈ 0.553 µM).

Question: Which MIC [2] does the source give for `CCNCC1CCN(c2c(F)cc3c(=O)c(C(=O)O)cn(C4CC4)c3c2F)C1` (stereo in doubt; 7) [PD-117558] here?
Answer: Its MIC is 0.09 µg/mL (≈ 0.23 µM).

Question: Which IC50 [1, 3] does the source give for `CCNCC1CCN(c2c(F)c(C)c3c(=O)c(C(=O)O)cn(C4CC4)c3c2F)C1` (stereo not drawn) here?
Answer: The IC50 was 9 µg/mL (≈ 22.2 µM).

Question: What about the MIC ([2]; read-out: MIC) of the same compound?
Answer: Its MIC is 0.28 µg/mL (≈ 0.691 µM).

Question: Which results are given for `CCNCC1CCN(c2cc3c(cc2F)c(=O)c(C(=O)O)cn3-c2ccc(F)cc2F)C1` (stereo in doubt; 17)?
Answer: IC50 ([1]; v79): 190 µg/mL (≈ 427 µM); MIC [2]: 0.8 µg/mL (≈ 1.8 µM)

Question: For `O=C(O)c1cn(C2CC2)c2c(Cl)c(N3CCCC3)c(F)cc2c1=O`, which IC50 [1, 3] is on record?
Answer: The IC50 was 150 µg/mL (≈ 428 µM).

Question: What about the MIC ([2]; read-out: MIC) of the same compound?
Answer: The MIC was 0.1 µg/mL (≈ 0.285 µM).

Question: With `CC1CN(c2c(F)cc3c(=O)c(C(=O)O)cn(C4CC4)c3c2Cl)CC(C)N1` (stereo not drawn) as the compound, how does the IC50 [1, 3] read?
Answer: Its IC50 is 140 µg/mL (≈ 355 µM).

Question: What about the MIC ([2]; read-out: MIC) of the same compound?
Answer: Its MIC is 0.23 µg/mL (≈ 0.584 µM).

Question: For `CC1CN(c2c(F)cc3c(=O)c(C(=O)O)cn(C4CC4)c3c2C(F)(F)F)CCN1` (stereo not drawn), which IC50 [1, 3] is on record?
Answer: Its IC50 is 220 µg/mL (≈ 532 µM).

Question: What about the MIC ([2]; read-out: MIC) of the same compound?
Answer: The MIC was 0.6 µg/mL (≈ 1.45 µM).

Question: What does the source list for `NC1CCN(c2c(F)cc3c(=O)c(C(=O)O)cn(C4CC4)c3c2C(F)(F)F)C1` (stereo in doubt; 24e)?
Answer: IC50 ([1]; v79): 300 µg/mL (≈ 751 µM); MIC [2]: 0.2 µg/mL (≈ 0.501 µM)

Question: Which IC50 [1, 3] does the source give for `NC1CCN(c2c(F)cc3c(=O)c(C(=O)O)cn(C4CC4)c3c2C(F)(F)F)CC1` here?
Answer: The IC50 was 20 µg/mL (≈ 48.4 µM).

Question: And the MIC ([2]; read-out: MIC)?
Answer: Its MIC is 0.26 µg/mL (≈ 0.629 µM).
